Data taken from patent publication US8802597B2, “Herbicidal pyrimidines” (E I du Pont de Nemours and Company, priority 2003, dated 2014).

Columns and labels:
Assay in all cases: Test C pre/postemergence
Format in all cases: in vivo
[1] = tested on: Surinam grass (Brachiaria decumbens); conditions: for Surinam Grass plant response rating: scale 0 to 100 (0 no effect, 100 complete control)
Procedure, shortened: (§1)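 Test compounds, formulated in a non-phytotoxic solvent mix with surfactant, were applied to freshly planted seeds and, at the same time, to emerged plants at 1- to 4-leaf stage (2 to 18 cm). After 12 to 14 days in the greenhouse, response was scored visually versus controls, 0 = no effect, 100 = complete control.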

[2] = tested on: bermudagrass (Cynodon dactylon)
Procedure, shortened: as §1

[3] = tested on: cocklebur (Xanthium strumarium); conditions: for Cocklebur plant response rating: scale 0 to 100 (0 no effect, 100 complete control)
Procedure, shortened: as §1

[4] = tested on: common (oilseed) sunflower (Helianthus annuus); conditions: Preemergence
Procedure, shortened: as §1

[5] = tested on: common ragweed (Ambrosia elatior); conditions: for Ragweed plant response rating: scale 0 to 100 (0 no effect, 100 complete control)
Procedure, shortened: as §1

corn (Zea mays) = conditions: for Corn plant response rating: scale 0 to 100 (0 no effect, 100 complete control)
Procedure, shortened: as §1

[6] = tested on: eastern black nightshade (Solanum ptycanthum); conditions: Preemergence
Procedure, shortened: as §1

[7] = tested on: johnsongrass (Sorghum halepense); conditions: for Johnsongrass plant response rating: scale 0 to 100 (0 no effect, 100 complete control)
Procedure, shortened: as §1

kochia (Kochia scoparia) = conditions: for Kochia plant response rating: scale 0 to 100 (0 no effect, 100 complete control)
Procedure, shortened: as §1

[8] = tested on: morningglory (Ipomoea coccinea); conditions: for Morningglory plant response rating: scale 0 to 100 (0 no effect, 100 complete control)
Procedure, shortened: as §1

[9] = tested on: pigweed (Amaranthus retroflexus); conditions: for Pigweed plant response rating: scale 0 to 100 (0 no effect, 100 complete control)
Procedure, shortened: as §1

[10] = tested on: woolly cupgrass (Eriochloa villosa); conditions: for Cupgrass, Woolly plant response rating: scale 0 to 100 (0 no effect, 100 complete control)
Procedure, shortened: as §1

[11] = Postemergence, 250 g ai/ha, scale 0 to 100
[12] = Preemergence, 31 g ai/ha, scale 0 to 100, 0 no effect, 100 complete control
[13] = Preemergence, 62 g ai/ha, scale 0 to 100, 0 no effect, 100 complete control
[14] = Preemergence, 125 g ai/ha, scale 0 to 100
[15] = Preemergence, 250 g ai/ha, scale 0 to 100
[16] = 62 g ai/ha, scale 0 to 100, 0 no effect, 100 complete control

CC(C)COC(=O)c1nc(C2CC2)nc(N)c1Br [Compound 17]
100: Cocklebur plant response rating ([3]; Postemergence, 62 g ai/ha) | Cocklebur plant response rating ([3]; Postemergence, 125 g ai/ha) | Plant response rating, Cocklebur [3, 11] | Plant response rating, Cocklebur [3, 15] | Plant response rating, Sunflower ([4]; 125 g ai/ha, scale 0 to 100) | Plant response rating, Sunflower ([4]; 250 g ai/ha, scale 0 to 100) | Plant response rating, Ragweed [5, 15] | Plant response rating, Nightshade ([6]; 250 g ai/ha, scale 0 to 100) | Plant response rating (scale of 0 to 100), Kochia (kochia (Kochia scoparia); Postemergence, 31 g ai/ha) | Kochia plant response rating (kochia (Kochia scoparia); Postemergence, 62 g ai/ha) | Kochia plant response rating (kochia (Kochia scoparia); Postemergence, 125 g ai/ha) | Plant response rating, Kochia (kochia (Kochia scoparia); [11]) | Morningglory plant response rating ([8]; Postemergence, 125 g ai/ha) | Plant response rating, Morningglory [8, 11] | Plant response rating, Morningglory [8, 14] | Plant response rating, Morningglory [8, 15] | Plant response rating, Pigweed [9, 13] | Plant response rating, Pigweed [9, 14] | Plant response rating, Pigweed [9, 15]
55: Plant response rating, Johnsongrass [7, 14]
0: Plant response rating (scale of 0 to 100), Surinam Grass ([1]; Postemergence, 31 g ai/ha) | Surinam Grass plant response rating ([1]; Postemergence, 62 g ai/ha) | Surinam Grass plant response rating ([1]; Postemergence, 125 g ai/ha) | Plant response rating, Surinam Grass [1, 11] | Plant response rating, Surinam Grass [1, 12] | Plant response rating, Surinam Grass [1, 13] | Plant response rating, Surinam Grass [1, 14] | Plant response rating, Surinam Grass [1, 15] | Plant response rating (scale of 0 to 100), Bermudagrass ([2]; Postemergence, 31 g ai/ha) | Bermudagrass plant response rating ([2]; Postemergence, 62 g ai/ha, scale 0 to 100 (0 no effect, 100 complete control)) | Plant response rating, Bermudagrass [2, 11] | Plant response rating, Bermudagrass ([2]; Postemergence, 125 g ai/ha, scale 0 to 100) | Plant response rating, Bermudagrass [2, 12] | Plant response rating, Bermudagrass [2, 13] | Plant response rating, Bermudagrass [2, 14] | Plant response rating, Bermudagrass [2, 15] | Plant response rating (scale of 0 to 100), Corn (corn (Zea mays); Postemergence, 31 g ai/ha) | Corn plant response rating (corn (Zea mays); Postemergence, 62 g ai/ha) | Corn plant response rating (corn (Zea mays); Postemergence, 125 g ai/ha) | Plant response rating, Corn (corn (Zea mays); [12]) | Plant response rating (scale of 0 to 100), Johnsongrass ([7]; Postemergence, 31 g ai/ha) | Johnsongrass plant response rating ([7]; Postemergence, 62 g ai/ha) | Plant response rating, Johnsongrass [7, 12] | Plant response rating, Johnsongrass [7, 13] | Plant response rating, Kochia (kochia (Kochia scoparia); [12]) | Plant response rating, Kochia (kochia (Kochia scoparia); [13]) | Plant response rating (scale of 0 to 100), Cupgrass, Woolly ([10]; Postemergence, 31 g ai/ha) | Cupgrass, Woolly plant response rating ([10]; Postemergence, 62 g ai/ha) | Cupgrass, Woolly plant response rating ([10]; Postemergence, 125 g ai/ha) | Plant response rating, Cupgrass, Woolly [10, 12] | Plant response rating, Cupgrass, Woolly [10, 13]
95: Plant response rating (scale of 0 to 100), Cocklebur ([3]; Postemergence, 31 g ai/ha) | Plant response rating, Cocklebur [3, 14] | Plant response rating, Sunflower [4, 16] | Ragweed plant response rating ([5]; Postemergence, 125 g ai/ha) | Plant response rating, Ragweed [5, 11] | Plant response rating, Ragweed [5, 14] | Plant response rating, Nightshade ([6]; 125 g ai/ha, scale 0 to 100) | Plant response rating (scale of 0 to 100), Morningglory ([8]; Postemergence, 31 g ai/ha) | Morningglory plant response rating ([8]; Postemergence, 62 g ai/ha) | Plant response rating, Morningglory [8, 13] | Plant response rating, Pigweed [9, 11] | Plant response rating, Pigweed [9, 12]
75: Plant response rating, Cocklebur [3, 12] | Plant response rating, Corn (corn (Zea mays); [15]) | Plant response rating, Johnsongrass [7, 15] | Pigweed plant response rating ([9]; Postemergence, 125 g ai/ha)
20: Plant response rating, Corn (corn (Zea mays); [11]) | Plant response rating, Corn (corn (Zea mays); [13]) | Plant response rating, Cupgrass, Woolly [10, 11] | Plant response rating, Cupgrass, Woolly [10, 14]
90: Plant response rating, Cocklebur [3, 13]
60: Plant response rating, Sunflower ([4]; 31 g ai/ha, scale 0 to 100, 0 no effect, 100 complete control) | Plant response rating, Johnsongrass [7, 11]
70: Plant response rating, Ragweed [5, 12] | Plant response rating, Morningglory [8, 12]
80: Plant response rating, Ragweed [5, 13] | Plant response rating, Nightshade [6, 16]
35: Plant response rating, Corn (corn (Zea mays); [14])
25: Plant response rating, Kochia (kochia (Kochia scoparia); [14])
45: Plant response rating (scale of 0 to 100), Pigweed ([9]; Postemergence, 31 g ai/ha)
40: Johnsongrass plant response rating ([7]; Postemergence, 125 g ai/ha)
65: Plant response rating (scale of 0 to 100), Ragweed ([5]; Postemergence, 31 g ai/ha) | Pigweed plant response rating ([9]; Postemergence, 62 g ai/ha)
85: Ragweed plant response rating ([5]; Postemergence, 62 g ai/ha) | Plant response rating, Kochia (kochia (Kochia scoparia); [15]) | Plant response rating, Cupgrass, Woolly [10, 15]
